Assay results published in patent US11472846B2, “Compositions and methods for treating diseases by inhibiting exosome release” (priority 2016, dated 2022).
Where two headings read alike, the source gives them in different places.

Assays:
Format in all cases: cell-based, human
[1] = tested on: MCF-7 breast cancer cells; experiment: MTT proliferation assay, MCF-7; details: MCF-7 cells
Method: (§1) 1-3. Viability and proliferation. Human breast cancer cell lines were seeded into 96-well plates (5000 cells/well) and treated for 24 hours with various concentrations of SMR peptides including PEG-SMRwt-Clu, PEG-SMRwt and PEG-SMRmut to determine IC50 (inhibition concentration). Cell proliferation was determined using the MTT assay (Molecular Devices, Sunnyvale, Calif.). Control experiments were performed with MTT treated cells alone and untreated cells, and on this basis, the incubation times of 24 hr and 48 hr were used for an MTT assay of peptide-treated cells (Stockerta JC. et al., 2012 and Riss TL. et al., 2015).
(§2) 7-4. Cell proliferation and cytotoxicity assay. Human breast cancer cell lines MCF-7, MDAMB-231, and leukemia K562 cells, and non-tumorigenic MCF-10A cells are seeded into 96-well plates (5000 cells/well) and treated for 24 hours with 0-1120 nM SMRwt-CPP or SMRmut-CPP (FIG. 10). Cell proliferation was determined using the MTT [3-(4,5-dimethylthiazol-2-yl)-2,5-diphenyltetrazolium bromide] dye assay by SpectraMax M5 Fluorescence Plate Reader (Molecular Devices. Sunnyvale, Calif.). Cell viability was estimated by the conversion of yellow MTT by mitochondrial dehydrogenases of living cells to purple formazon (MTT assay). Control experiments were performed with cells treated or untreated with MTT, and on this basis, an incubation time of 24 hours was used for MTT assays of peptide-treated cells (Huang, M. B., et al., Oncotarget, 2017. 8(7): pp. 11302-11315.). Statistical significance of results was determined from three independent experiments including triplet or quadruplet sets in each experiment.

[2] = tested on: MDA-MB-231 breast cancer cells; experiment: MTT proliferation assay, MDA-MB-231; details: MDA-MB-231 cells
Method: as §1, §2

[3] = tested on: MCF-7 breast cancer cells; experiment: Exosome release by acetylcholinesterase (AchE) assay, MCF-7; details: MCF-7 cells, five-day treatment
Method: (§3) 1-6. Exosome isolation and purification. Exosomes were isolated from breast cancer cells by differential centrifugation as previously described (Ali SA. et al., 2010). Untreated tumor cells were used as a control. Briefly, the above treated and untreated cell culture supernatants were centrifuged at 400×g for 10 minutes. The supernatants were transferred to a clear tube and centrifuged at 10,000×g for 30 minutes. The supernatants from the second spin were ultracentrifuged at 200,000×g for 2 hours to pellet exosomes. Finally, the exosome pellets were re-suspended with PBS and stored at 4° C. until used for analysis.
(§4) 1-7. Exosome characterization by acetylcholinesterase (AchE) assay. Purified exosomes were quantitated by measurement of AchE as described (Ellman et al., 1961). Briefly, a 100 mM dithibionitrobenzoic (DTNB) solution was prepared for use as a stock color indicator, and a 28.9 mg/mL acetylthiocholine iodide in PBS solution was prepared as a stock substrate. The stock substrate stock can be stored at −20° C. up to one month, while the color indicator can be stored at 4° C. for two weeks. A working solution was prepared by mixing 10 mL of PBS with 200 μL of Substrate and 500 μl of DTNB. 50 μL of each exosome sample was transferred to 96 well microtitre plates, and a standard curve was prepared using AchE from 0.98 mU/mL to 2000 mU/mL. After 50 μL of standards were added into separate wells, 200 μL of the working solution was added to all wells. After 20 min incubation, AchE activity was measured at 450 nm using a SpectroMax M5 fluorimeter.
(§5) 7-5. Exosome isolation and purification. Exosomes were isolated from breast cancer cells and leukemia cells using the ExoQuick-TC Exosome Precipitation Kit (System Biosciencences [SBI], Mountain View Calif.) or the miRCURY Exosome Isolation Kit (EXIQON, Woburn, Mass.) according to the manufacturer's instructions. Untreated tumor cells were used as a control. Briefly, treated and untreated cell culture supernatants (10 mL) were centrifuged at 3000×g for 15 minutes. The resulting supernatants were transferred to a clear tube, 2 mL of ExoQuick-TC buffer was added, mixed and incubated overnight at 4° C. Following the incubation, the sample contents were centrifuged at 1500×g for 30 minutes, the supernatants were aspirated off, the pellets were centrifuged at 1500×g for 5 minutes and any further traces of supernatant were removed (SBI). Alternatively, treated and untreated cell culture supernatants were centrifuged at 10,000×g for 5 minutes to remove cell debris, supernatants (10 ml) were transferred into new tubes, and 4 mL of precipitation buffer (EXIQON) was added, and the contents were mixed and incubated at 4° C. overnight. Following the incubation, the sample contents were centrifuged at 10,000×g for 30 minutes (EXIQON). Exosome-containing pellets were re-suspended in PBS and stored at 4° C. or −80° C.
(§6) 7-6. Exosome characterization by acetylcholinesterase (AchE) assay. Purified exosomes were quantitated by measurement of AchE as previously described (Huang et al., Oncotarget, 2017. 8(7): pp. 11302-11315). Briefly, 100 mM dithibionitrobenzoic (DTNB) was prepared as a stock color indicator, and prepared a stock substrate containing 28.9 mg/mL of acetylthiocholine iodide in PBS. Substrate stock can be stored at −20° C. up to one month; the stock color indicator can be stored at 4° C. for two weeks. A working solution was prepared by mixing 10 mL of PBS with 200 μL of substrate and 500 μl of DTNB. 50 μL of each exosome sample was transferred to a 96 well microtitre plate, and a standard curve for AchE concentrations was prepared using AchE from 0.98 mU/mL to 2000 mU/mL. After 50 μL of standards were added into separate wells, 200 μL of the working solution was added to each well. After a 20 min incubation, AchE activity was measured at 450 nm using a SpectroMax M5 fluorometer (FIG. 11).

[4] = tested on: MDA-MB-231 breast cancer cells; experiment: Exosome release by acetylcholinesterase (AchE) assay, MDA-MB-231; details: MDA-MB-231 cells, five-day treatment
Method: as §3, §4, §5, §6

[5] = tested on: exosomes from MCF-7 cells; experiment: Western blot of exosomal proteins (Alix, vimentin, mortalin), MCF-7; details: 48 hr treatment, vs negative controls
Method: (§7) 7-7. Protein analysis by Western blotting. Exosomes were isolated from cell culture supernatants as described above. Protein concentrations were determined by measuring absorbance at 280 nm (Nanodrop 2000). Cultured cells were treated with PEG-SMR-Clu, SMR-CPP peptides, MKT-077, Omeprazole or DMA at 37° C. for 48 hr. To evaluate mortalin, vimentin and exosome expression, Western blot analysis was performed using anti-mortalin (Grp-75), anti-Vimentin and anti-Alix antibodies, respectively (FIG. 12).
(§8) Exosomes and cell lysates were prepared by incubating 5-10 min at 95° C. in sample buffer. The lysates were subjected to SDS-PAGE under reducing conditions (150 mM DTT) in 4-20% Criterion™ TGX™ precast gels (BioRad, Hercules, Calif.) and then transferred onto a nitrocellulose membrane (Bio-Rad, Hercules, Calif.). Nitrocellulose membranes were blocked with 5% skim milk (MedSupply, Atlanta, Ga.) in TBS containing 0.05% Tween 20 (TBST) for 1 h at room temperature. The membranes were treated with anti-mortalin (Grp-75) mAb or anti-α-tubulin mAb for cell lysates (FIG. 15, Panels A and B) or with anti-Alix and anti-vimentin or anti-mortalin for exosomes (FIG. 12), followed by peroxidase-conjugated goat anti-mouse IgG. Bands were developed with an ECL chemiluminescent substrate (Santa Cruz Biotechnology, Santa Cruz, Calif.) and exposed to an ImageQuant LAS 4000 imaging system (GE Healthcare, Piscataway, N.J. 08854).

MDA-MB-231 exosomes = experiment: Western blot of exosomal proteins (Alix, vimentin, mortalin), MDA-MB-231; details: MDA-MB-231 cells, 48 hr treatment
Method: as §7, §8

K562 exosomes = experiment: Western blot of exosomal proteins (Alix, vimentin, mortalin), K562; details: K562 cells, 48 hr treatment
Method: as §7, §8

MDA-MB-231 cells = experiment: TUNEL apoptosis assay, MDA-MB-231; details: 48 hours, MKT-077 925 nM/mL, DMA 300 μM/mL, Omeprazole 200 μM/mL, paclitaxel 1.6 uM/mL, cisplatin 2 mg/mL
Method: (§9) 7-8. Apoptosis assay by flow cytometry. For assessment of apoptosis, MCF-7 and MDA-MB-231 breast cancer cells and were seeded into 6-well plates at 4×10^5 cells per well and treated for 48 hours with 925 nM/mL of MKT-077 on MDA-MB-231 cells, 500 nM/mL of MKT-077 on MCF-7 cells, 337.5 nM/mL of MKT-077 on K562 cells, 300 μM/mL of DMA, 200 μM/mL of Omeprazole, 1.6 uM/mL of paclitaxel, 2 mg/mL of cisplatin, or combined treatment with either paclitaxel or cisplatin in combination with each of the three mortalin inhibitors. Apoptosis was determined using the TUNEL detection kit (Nexcelom, MA) and GUAVA easyCyte HT (EMD Millipore Corporation, Temecula, Calif.) system for fluorometric detection. (FIG. 13).

MCF-7 cells = experiment: TUNEL apoptosis assay, MCF-7; details: 48 hours, MKT-077 500 nM/mL, DMA 300 μM/mL, Omeprazole 200 μM/mL, paclitaxel 1.6 uM/mL, cisplatin 2 mg/mL
Method: as §9

K562 cells = experiment: TUNEL apoptosis assay, K562; details: 48 hours, MKT-077 337.5 nM/mL, DMA 300 μM/mL, Omeprazole 200 μM/mL, paclitaxel 1.6 uM/mL, cisplatin 2 mg/mL
Method: as §9

[6] = 24 hours, MTT, read-out: 50% inhibition of cell growth
[7] = 24 hours, read-out: SMR at IC50 concentration

Compound | average AChE concentration days 1 to 5 [3] [mU/mL] | average AChE concentration day 1 to 5 [4] [mU/mL] | Alix expression in exosomes [5] | Mortalin expression in exosomes [5] | Vimentin expression in exosomes [5] | Mortalin expression in exosomes (MDA-MB-231 exosomes) | Vimentin expression in exosomes (MDA-MB-231 exosomes) | Alix expression in exosomes (K562 exosomes) | Mortalin expression in exosomes (K562 exosomes) | Vimentin expression in exosomes (K562 exosomes) | apoptosis (TUNEL) (MDA-MB-231 cells) [%] | apoptosis (TUNEL) (MCF-7 cells) [%] | apoptosis (TUNEL) (K562 cells) [%] | also measured
N.N.[Cl][Pt][Cl] [cisplatin, reference compound] |  |  |  |  |  |  |  |  |  |  |  |  |  | experimentally determined IC50 dosage ([1]; data not shown): 3000 µg/mL; experimentally determined IC50 dosage ([2]; data not shown): 2000 µg/mL
COc1ccc2[nH]c([S+]([O-])Cc3ncc(C)c(OC)c3C)nc2c1 (stereo not shown) [Omeprazole, 5-Methoxy-2-[[(4-methoxy-3,5-dimethyl-2-pyridinyl)methyl]sulfinyl]-1H-benzimidazole] | 26 | 25 | not accompanied by significant reductions | no significant changes | significantly decreased | No significant change | no significant change | significantly decreased | significantly decreased | significantly | 3.0 | 1.1 | 6.1 | 
NXNVGFPVAAVGFPV (SEQ ID NO: 36) [PEG-SMRwt] |  |  |  |  |  |  |  |  |  |  |  |  |  | IC50 [1, 6]: 280 nM; IC50 [1, 7]: 280 nM; IC50 [2, 6]: 420 nM; IC50 [2, 7]: 420 nM
SMRmut-CPP (AGFPVAAAGFPVGRKKRRQRRRPPQ) [SEQ ID NO: 41] |  |  |  |  |  |  |  |  |  |  |  |  |  | AchE concentration on day 3 ([3]; day 3, mock 69.15): 66.05 mU/mL; AchE concentration, initial increase ([3]; days 1 and/or 2, mock 155.13): 150.06 mU/mL; AChE initial increase on day 1 ([4]; day 1, mock 146.52): 141.47 mU/mL
CCn1c(=Cc2cccc[n+]2CC)sc(=C2Sc3ccccc3N2C)c1=O.[Cl-] [MKT-077, 1-Ethyl-2-[[3-ethyl-5-(3-methyl-2(3H)-benzothiazolylidene)-4-oxo-2-thiazolidinylidene]methyl]-pyridinium chloride] | 22 | 29 | significantly decreased | significantly decreased | significantly decreased | No significant change | no significant change | significantly decreased | significantly decreased | significantly | 52.13 | 90.1 | 82.7 | 
CC(=O)O[C@H]1C(=O)[C@@]2(C)[C@H]([C@H](OC(=O)c3ccccc3)[C@]3(O)C[C@H](OC(=O)[C@H](O)[C@@H](NC(=O)c4ccccc4)c4ccccc4)C(C)=C1C3(C)C)[C@]1(OC(C)=O)CO[C@@H]1C[C@@H]2O [paclitaxel, reference compound] |  |  |  |  |  |  |  |  |  |  |  |  |  | IC50 ([1]; Homo sapiens, MCF7, data not shown, read-out: experimentally determined IC50 dosage): 1600 nM; IC50 ([2]; Homo sapiens, data not shown, read-out: experimentally determined IC50 dosage): 1600 nM
